ChEMBL document CHEMBL3769378, “Protective effect and mechanism of action of saponins isolated from the seeds of gac (Momordica cochinchinensis Spreng.) against cisplatin-induced damage in LLC-PK1 kidney cells” (2016)
The source made the active and inactive calls. The calls are words filed in the database; no cut-off is given here.

Experiments:
[1] = system: LLC-PK1; assay: Renoprotective activity in pig LLC-PK1 cells assessed as reduction in cisplatin-induced toxicity by measuring cell viability at 5 to 50 uM after 24 hrs by MTT assay relative to control; type: functional, Sus scrofa
[2] = system: LLC-PK1; assay: Inhibition of cisplatin-induced p38 phosphorylation in pig LLC-PK1 cells at 50 uM after 24 hrs by Western blotting method; type: cell-based; details: Sus scrofa
[3] = system: LLC-PK1; assay: Inhibition of cisplatin-induced JNK phosphorylation in pig LLC-PK1 cells at 50 uM after 24 hrs by Western blotting method; type: cell-based; details: Sus scrofa
[4] = system: LLC-PK1; assay: Inhibition of cisplatin-induced caspase-3 activity in pig LLC-PK1 cells assessed as decrease in cleaved caspase 3 level at 50 uM after 24 hrs by Western blotting method; type: functional, cell-based; details: Sus scrofa
[5] = system: LLC-PK1; assay: Inhibition of cisplatin-induced apoptosis in pig LLC-PK1 cells at 50 uM after 24 hrs by annexin V-Alexa Fluor 488/propidium iodide staining-based flow cytometry; type: functional, cell-based; details: Sus scrofa
[6] = system: LLC-PK1; assay: Renoprotective activity in pig LLC-PK1 cells assessed as reduction in cisplatin-induced toxicity by measuring cell viability after 24 hrs by MTT assay; type: functional, cell-based; details: Sus scrofa

Row | Compound | Activity [1] | inhibition [2] | inhibition [3] | inhibition [4] | inhibition [5] | Activity [6] | Activity ([1]; Sus scrofa)
1 | C[C@H]1O[C@H](O[C@H]2[C@H](O)[C@@H](C(=O)O)O[C@@H](O[C@@H]3CC[C@]4(C)[C@H](CC[C@@]5(C)[C@H]4CC=C4[C@H]6CC(C)(C)CC[C@@]6(C(=O)O)CC[C@@]45C)[C@@]3(C)C=O)[C@@H]2O[C@H]2O[C@@H](CO)[C@@H](O)[C@@H](O)[C@@H]2O)[C@@H](O)[C@@H](O)[C@@H]1O | <=80% | Active | Active | Active | Active | Dose-dependent effect | 
2 | C[C@@H]1O[C@@H](O[C@H]2[C@H](O)[C@@H](C(=O)O)O[C@@H](O[C@@H]3CC[C@]4(C)[C@H](CC[C@@]5(C)[C@H]4CC=C4[C@H]6CC(C)(C)CC[C@@]6(C(=O)O[C@@H]6O[C@H](C)[C@H](O)[C@H](O)[C@H]6O[C@H]6O[C@H](C)[C@@H](O[C@H]7OC[C@H](O)[C@@H](O)[C@@H]7O)[C@H](O[C@H]7O[C@@H](CO)[C@H](O)[C@@H](O[C@@H]8OC[C@@H](O)[C@H](O)[C@H]8O)[C@@H]7O)[C@@H]6O)CC[C@@]45C)[C@@]3(C)C=O)[C@@H]2O[C@@H]2O[C@H](CO)[C@H](O)[C@H](O)[C@H]2O)[C@H](O)[C@H](O)[C@H]1O |  |  |  |  |  |  | Active
3 | C[C@H]1O[C@H](O[C@H]2[C@H](O)[C@@H](C(=O)O)O[C@@H](O[C@@H]3CC[C@]4(C)[C@H](CC[C@@]5(C)[C@H]4CC=C4[C@H]6CC(C)(C)CC[C@@]6(C(=O)O)[C@@H](O)C[C@@]45C)[C@@]3(C)C=O)[C@@H]2O[C@H]2O[C@@H](CO)[C@@H](O)[C@@H](O)[C@@H]2O)[C@@H](O)[C@@H](O)[C@@H]1O | <=80% | Active | Active | Active | Active | Dose-dependent effect | 
